Source: patent US20260275280A1, “DIRECTED DIFFERENTIATION PROTOCOLS TO DERIVE BONE FIDE SPINAL SENSORY INTERNEURONS” (THE REGENTS OF THE UNIVERSITY OF CALIFORNIA, priority 2022, published 2026)
Values joined by “and” are separate entries in the source; they are usually repeats but may differ in a detail not shown here. Equal values may be shown once.

Legend:
[1] = test system: mESC-derived NPCs; test: Expansion culture: serial passaging of RA±BMP4 patterned EBs in CHIR or DMSO; type: cell-based, mouse
Procedure: For expansion cultures. EBs were dissociated in single cell suspension at day 6 by treating with 0.25% Trypsin, followed by trituration to break up the larger cell clumps. Cells were pelleted and passaged in N2/B27 medium containing either DMSO or 5 μM CHIR at 1:3 dilution. Media was changed at every third day during the expansion culture.
Finally, we assessed whether the mitogenic properties of Wnt signaling can be leveraged to expand the pool of mESC-derived NPCs. RA±BMP4 patterned EBs were serially passaged at 1:3 dilution […] in the presence of DMSO (control) or CHIR (FIG. 7A).
Embryonic stem cells are first directed to a day 4 neural precursor cell (NPC) state, and then Wnt signaling is continually switched on using CHIR, which starts the process of proliferation. The cells are then passaged every 6 days. with a 1:3 split. Control NPCs die almost immediately, while “expanded” cells keep dividing for as long as they have been passaged to date (three months). These NPCs can then be differentiated. Differentiation of the expanded cultures without any further signals yields dI3s and dI5s. A further pulse for two days with RA (day 3-5), produces dI4, dI5 and dI6. Pulsing them with RA+BMP4, yields dI1, dI2 and dW3.
Thus, a method of keeping dorsal progenitors (dPs) in a proliferative state for many passages (perhaps indefinitely) is provided. The proliferative state can be maintained without changing the fate potential of the dPs. mESCs are first patterned according to either the RA or RA+BMP4 protocol, up to day 6. After patterning, the dPs are then reintroduced to medium containing CHIR (Wnt agonist, that stimulates Wnt signaling). The CHIR-treated cultures can then serially expand 3-fold every 6 days (a passage), unlike control (DMSO-treated) cells, which start dying at passage 2 (FIG. 7). To date we have expanded dPs for 7-8 passages, i.e. a couple of months.

[2] = test system: mESC-derived neurons; test: Single-cell RNA sequencing of day 9 cultures, assignment of dI identities; type: cell-based, mouse; settings: scRNA-Seq
Procedure: Preparation of single cell suspension: Day 9 cultures from both protocol1 (RA) and protocol3 (RA+BMP4) were dissociated with 0.25% cold trypsin for 5 mins. Trypsin activity was stopped with the addition of trypsin inhibitor (Sigma-Aldrich) in 1:1 ratio. Cells were then pelleted by centrifugation at 1000RPM and resuspended in 1× PBS. The ratio of viable cells was determined using Trypan blue staining. Dead cells were removed using MACS dead cell removal kit (Miltenyi Biotec Inc.) by following the manufacturer's protocol. Eluted live cells were then suspended in 1× PBS containing 0.04% BSA solution (400 μg/ml) for the library preparation.
Library preparation, and sequencing: ~10,000 live cells/conditions were used to construct single-cell specific cDNA libraries using protocol described in 10× Genomics chromium single cell 3′ reagent kit (v3.1 Chemistry). Briefly, cells were partitioned into nanoliter-scale Gel-Beads-in-emulsion (GEM) using the 10× Chromium controller. Each GEM contains a unique barcode which is shared among the cDNA generated from a single cell. Cells were then lysed, and cDNA synthesis and feature barcoding were performed in the GEMs. The sequencing libraries were recovered using Magnetic separation and the quantity and quality of cDNA were assessed by Agilent 2100 expert High Sensitivity DNA Assay. cDNA samples were sequenced on 1 lane of NovaSeq 6000 S2 flow cell and reads were mapped to mouse mm10 genome using Cell Ranger v.3.0.2 to generate fasq files.
Filtering genes and cells: Seurat package v3.1.1 was used for the analysis. For each condition, genes expressing in less than 3 cells were removed and cells with >250 features were retained. PCA was used for dimension reduction (npcs=50) with top 3000 most variable genes. Raw count data were normalized using regularized negative binomial regression with SCT transformation. Cell clustering is done using Shared Nearest Neighbor (SNN) Graph method and cluster specific markers were identified by Wilcox Rank Sum test.
Each cell cluster was annotated by a combination of the following methods 1) the expression of known canonical cell-type markers 2) Gene Set Enrichment Analysis (GSEA) of cluster specific markers determined by FindMarkers function in Seurat.
Reclustering of neuronal clusters: From the entire single-cell dataset, neuronal cells were first identified by the expression of pan-neuronal markers-Tubb3 and Elavl1/2. Roughly 30% cells express these markers in both protocol 1 and protocol 3 and were thus annotated as the mature neurons. The neuronal populations were then extracted using the Seurat package in R, by clustering the cells expressing Tubb3 >2 (median normalized log expression levels) using the Shared Nearest Neighbor (SNN) Graph method. […] Clusters were visualized with Uniform Manifold Approximation Projection (UMAP) method and the unique cluster-specific markers were identified using FindMarker function in Seurat.
To assess whether protocols 1 and 3 direct distinct classes of dIs, we obtained single-cell transcriptomes from 9,704 cells using protocol 1 and 13,121 cells using protocol 3, taken at day 9 of the differentiation procedure (FIG. 2A). We performed Louvain clustering followed by Uniform Manifold Approximation and Projection (UMAP) plots, to visualize groups of transcriptionally distinct cell types (Becht et al., 2018). This pipeline identified 21 dusters of cells in both protocol 1 (FIG. 2C) and protocol 3 (FIG. 2D). In both conditions, ~30% of cells identify as being stressed; they cluster separately and display <2000 RNA counts (FIGS. 2C, 2D, 9A, 9B). ~2-4% cells are pluripotent stem cells, marked by Sox2, Pou5f1 (Oct4) and Nanog expression, while 5-8% cells are non-neural, either of mesodermal or cardiac neural crest identity, expressing Twist1, Runx2, and Hand2 (Han et al., 2021; Soldatov et al., 2019; Vincentz et al., 2013) (FIGS. 2C, 2D, 9A, 9B). […]

Compound	EB size over three consecutive passages ([1]; CHIR vs DMSO, RA and RA+BMP4 patterned EBs)	Sox2+ NPC identity after passaging ([1]; CHIR-treated EBs)	serial expansion of CHIR-treated cultures every 6 days (a passage) ([1]; Example 2) [fold]	increase in the number of EBs after each passage compared to DMSO-treated EBs ([1]; RA- and RA+BMP4-treated EBs) [fold]	increase in the number of CHIR-treated EBs by the third passage ([1]; passaged 1:3 every 7 days)	Tubb3+ (Tuj1+) neurons of unknown neural identity (no dI specific markers) [2]	Tubb3+ (Tuj1+) neurons that are dI1 [2]	Tubb3+ (Tuj1+) neurons that are dI2 [2] [%]	Tubb3+ (Tuj1+) neurons that are dI4 [2]	Tubb3+ (Tuj1+) neurons that are dI5 [2]	Tubb3+ (Tuj1+) neurons that are dI6 [2]
Cc1c[nH]c(-c2cnc(NCCNc3ccc(C#N)cn3)nc2-c2ccc(Cl)cc2Cl)n1 [CHIR, CHIR99021]	decrease in EB size	remained Sox2^+ after multiple passages	3	> 6	3- to 6 fold						
CC1=C(/C=C/C(C)=C/C=C/C(C)=C/C(=O)O)C(C)(C)CCC1 [RA, retinoic acid]						8.5% and ~ 8.5%	5% and 5.2%	5	~ 33% and 33%	40.5% and 40.6%	8% and 7.6%
